Reference: ChEMBL document CHEMBL1201862, “PubChem BioAssay data set” (2004)
Activity calls are given as the source filed them.

Columns and labels:
[1] = molecular target: T1, E3 ubiquitin-protein ligase XIAP (Homo sapiens, UniProt P98170); experiment: Counter Screen using XIAP-Bir3 for Chemical Antagonists of Bir1/2 domains of IAP-family anti-apoptotic proteins. [Related pubchem assays (depositor defined):AID1018, AID1449, AID1514, AID1638, AID1749, AID1750, AID488957, AID488963]
[2] = molecular target: T1, E3 ubiquitin-protein ligase XIAP; experiment: small molecules displacing peptide from XIAP – biochemical, IAP family, fluorescence polarization (AID 1018); type: functional
[3] = molecular target: Acyl-homoserine lactone acylase PvdQ (Pseudomonas aeruginosa (strain LESB58), UniProt Q9I194); experiment: PvdQ acylase enzyme activity blockers – biochemical, fluorescence, plate reader and imaging, cherry-picks, dose response (AID 493231)
HEK293 [4] = experiment: inhibition of NOD1-driven NF-kB reporter – cell-based, luminescence, uHTS, primary screen (AID 1578); type: functional; conditions: Homo sapiens
[5] = Trypanosoma cruzi growth suppression in host cells – NIH3T3 host cells, beta-gal luminescence, confirmation (AID 2044); type: functional, cell-based;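 further: intracellular parasites grown in NIH/3T3 mouse fibroblasts as host cells; luminescent beta-galactosidase reporter signal from transgenic T. cruzi replicating inside host cells; inhibitors lower the luminescence signal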
INS1 = experiment: INS-1E survival protection against cytokine death – cell-based, luminescence, retest, dose response (AID 449756); type: functional; conditions: Rattus norvegicus;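 further: cell death triggered by IL-1 beta plus TNF-alpha plus IFN-gamma mixture; protective hits raise ATP signal compared with cytokine alone wells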
[6] = molecular target: Nucleotide-binding oligomerization domain-containing protein 2 (Homo sapiens, UniProt Q9HC29); experiment: inhibition of NOD2-driven NF-kB reporter – cell-based, luminescence, uHTS, HEK293 (AID 1566); type: functional
Vero [7] = experiment: cells; type: functional; conditions: Chlorocebus sabaeus
HEK293 [8] = experiment: cells; type: functional, cell-based; conditions: Homo sapiens
HEK293 [9] = experiment: cells; type: functional, cell-based; conditions: Homo sapiens; remark: listed apart in the source
Paired box protein Pax-8 = Paired box protein Pax-8 (Homo sapiens, UniProt Q06710); experiment: PAX8 transcriptional activity inhibition in RMG-I – RMG-I cells, luciferase, cherry-pick, dose response (AID 687027); type: functional, cell-based;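 further: luciferase reporter driven by Pax8 target thyroperoxidase promoter measured by SteadyGlo luminescence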
[10] = NIH3T3 cell viability loss – ATP luminescence, mouse fibroblasts, counter-screen, dose response (AID 2010); type: functional, cell-based;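 further: cells exposed to compound for about 90 hours before reading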
HEK293 [11] = experiment: cells; type: functional, cell-based; conditions: Homo sapiens; remark: listed apart in the source
Vero [12] = experiment: cells; type: functional, cell-based; conditions: Chlorocebus sabaeus
HEK293 [13] = experiment: NOD2 signaling inhibitors in MDP-stimulated cells, cell-based, uHTS, luminescence (AID 2001); type: functional; conditions: Homo sapiens
[14] = HepG2 cell cytotoxicity, dose response, cytotoxicity control for non-replicating M. tuberculosis project (AID 489018); type: functional; conditions: Mycobacterium tuberculosis
[15] = THP-1 cell cytotoxicity, dose response, cytotoxicity control for non-replicating M. tuberculosis project (AID 489025); type: functional
[16] = system: Streptococcus sp. 'group A'; experiment: Streptococcus pyogenes SK(-)GAS viability under kanamycin – luminescence, BacTiterGlo, confirmation, counter-screen for streptokinase expression inhibitor project, dose response (AID 1900); type: functional, organism-based
[17] = Vero E6 cell cytotoxicity, dose response, cytotoxicity control for non-replicating M. tuberculosis project, secondary assay (AID 492998); type: functional, VeroE6; conditions: Vero C1008
cells = type: functional
Streptococcus = experiment: GAS UMAA2166 growth inhibition – luminescence, BacTiterGlo, counter-screen for streptokinase expression inhibitor project, dose response (AID 1915); type: functional, organism-based;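 further: potency for reduction of bacterial viability or growth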
[18] = molecular target: T2, Zinc finger protein mex-5 (Caenorhabditis elegans, UniProt Q9XUB2); experiment: potency of MEX-5 RNA-binding blockers – biochemical, C. elegans, fluorescence polarization, dose response (AID 1960)
T2 sequence (Q9XUB2 whole entry): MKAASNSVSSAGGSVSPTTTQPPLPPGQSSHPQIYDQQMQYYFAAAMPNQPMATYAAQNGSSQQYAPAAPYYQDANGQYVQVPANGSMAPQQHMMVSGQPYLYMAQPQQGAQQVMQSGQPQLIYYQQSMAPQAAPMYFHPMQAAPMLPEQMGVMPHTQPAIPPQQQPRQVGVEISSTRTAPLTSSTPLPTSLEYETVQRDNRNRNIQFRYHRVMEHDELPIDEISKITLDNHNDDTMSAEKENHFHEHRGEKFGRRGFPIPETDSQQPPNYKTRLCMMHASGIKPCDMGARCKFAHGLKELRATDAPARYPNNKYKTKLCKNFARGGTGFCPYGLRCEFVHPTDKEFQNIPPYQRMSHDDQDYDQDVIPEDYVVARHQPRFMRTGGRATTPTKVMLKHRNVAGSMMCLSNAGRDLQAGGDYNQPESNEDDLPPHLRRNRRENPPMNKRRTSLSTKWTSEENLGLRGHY

Protein Rev = Protein Rev (Human immunodeficiency virus type 1 group M subtype B (isolate HXB2)(HIV-1), UniProt P04618); experiment: blockers of HIV Rev/RRE RNA complex – biochemical, fluorescence polarization, HIV-1, dose response (AID 434976); parameters: species or system Human immunodeficiency virus 1
[19] = molecular target: T3, RNA-binding protein pos-1 (Caenorhabditis elegans, UniProt G5EF15); experiment: disruptors of C. elegans POS-1 RNA interaction – biochemical, fluorescence polarization, dose response (AID 1964);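 further: purified POS-1 fused to maltose binding protein made in E. coli; potency of compounds blocking POS-1 binding to fluorescent RNA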
T3 sequence (G5EF15 whole entry): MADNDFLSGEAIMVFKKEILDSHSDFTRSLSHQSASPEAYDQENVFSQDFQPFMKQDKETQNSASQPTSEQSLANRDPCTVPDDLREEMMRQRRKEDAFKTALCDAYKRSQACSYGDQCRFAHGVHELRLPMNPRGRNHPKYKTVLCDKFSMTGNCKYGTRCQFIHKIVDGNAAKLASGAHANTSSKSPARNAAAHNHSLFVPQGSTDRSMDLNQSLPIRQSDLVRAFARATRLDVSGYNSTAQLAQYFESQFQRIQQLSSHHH

[20] = molecular target: Female germline-specific tumor suppressor gld-1 (Caenorhabditis elegans, UniProt Q17339); experiment: blockers of GLD-1/TGE RNA complex formation – biochemical, fluorescence polarization, C. elegans, dose response (AID 2802);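 further: fluorescence polarization of labeled TGE RNA bound by purified gld-1 protein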
[21] = molecular target: G-protein coupled receptor 55 (Homo sapiens, UniProt Q9Y2T6); experiment: selective activators of receptor GPR55 – imaging, U2OS cells, beta-arrestin-GFP redistribution, primary screen (AID 1961); type: functional
[22] = molecular target: Intestinal-type alkaline phosphatase (Homo sapiens, UniProt P09923); experiment: Dose Response confirmation of uHTS hits from a small molecule inhibitors of human intestinal alkaline phosphatase via a luminescent assay. [Related pubchem assays (depositor defined):AID2544, AID2574]; type: functional
Vero [23] = experiment: viability of Vero cells under compound – cytotoxicity control for flavivirus capping enzyme inhibitors (AID 588742); type: functional; conditions: Chlorocebus sabaeus
Nonstructural protein 1 = Nonstructural protein 1 (Influenza A virus, UniProt Q194T2); type: functional, Influenza A virus (A/California/07/2009(H1N1))
[24] = molecular target: Glyceraldehyde-3-phosphate dehydrogenase (Homo sapiens, UniProt P04406)
[25] = molecular target: T4, Alkaline phosphatase, tissue-nonspecific isozyme (Homo sapiens, UniProt P05186); experiment: potency against alkaline phosphatase TNAP – biochemical, luminescent, dose response, SAR follow-up (AID 1056)
T4 sequence (P05186 whole entry): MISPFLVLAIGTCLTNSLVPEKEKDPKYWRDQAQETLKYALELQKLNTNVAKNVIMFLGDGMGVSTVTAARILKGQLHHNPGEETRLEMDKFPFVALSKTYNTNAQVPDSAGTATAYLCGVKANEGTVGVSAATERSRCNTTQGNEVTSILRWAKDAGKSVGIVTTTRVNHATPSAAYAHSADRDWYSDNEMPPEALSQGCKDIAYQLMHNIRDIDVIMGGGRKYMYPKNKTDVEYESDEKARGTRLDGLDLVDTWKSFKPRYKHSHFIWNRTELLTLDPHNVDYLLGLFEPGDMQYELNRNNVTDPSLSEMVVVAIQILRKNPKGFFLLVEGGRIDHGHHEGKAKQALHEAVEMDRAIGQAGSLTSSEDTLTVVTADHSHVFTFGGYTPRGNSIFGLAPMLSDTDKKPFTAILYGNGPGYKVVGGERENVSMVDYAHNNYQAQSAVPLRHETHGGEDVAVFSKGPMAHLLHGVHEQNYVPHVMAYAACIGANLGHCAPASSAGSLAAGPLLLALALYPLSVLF

[26] = microbe, parasite or virus in culture; type: functional; conditions: Mycobacterium tuberculosis
[27] = Luminescence Cell-Based Dose Retest to Confirm Inhibitors of Cancer Stem Cells. [Related pubchem assays (depositor defined):AID2717, AID2721]; type: functional; conditions: Homo sapiens
Genome polyprotein = Genome polyprotein (dengue virus type 2, UniProt P29990); experiment: flavivirus cap methylation enzyme inhibition – biochemical, confirmation dose response, primary screen (AID 588689); type: functional
Hexokinase HKDC1 = Hexokinase HKDC1 (Homo sapiens, UniProt Q2TB90); experiment: inhibition of HKDC1 glucose phosphorylation – biochemical, W721R variant, dose response (AID 504729); type: functional
[28] = molecular target: Neurotensin receptor type 1 (Homo sapiens, UniProt P30989); type: functional;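 further: Image-based confirmatory dose-response assay measuring agonist activity at NTR1; NTR1-expressing U2OS osteosarcoma cells imaged for beta-arrestin GFP spot formation; agonist potency where compounds increase beta-arrestin recruitment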
Melanocortin receptor 4 = Melanocortin receptor 4 (Homo sapiens, UniProt P32245); type: functional, cell-based;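 further: Cell-based assay with luminescence read-out, confirmatory dose-response testing for agonist activity of biased ligands at MC4R; human U2OS cells with tagged receptor and beta-arrestin; potency of agonists that increase receptor coupling to beta-arrestin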
Melanocortin receptor 4, sequence (P32245 whole entry): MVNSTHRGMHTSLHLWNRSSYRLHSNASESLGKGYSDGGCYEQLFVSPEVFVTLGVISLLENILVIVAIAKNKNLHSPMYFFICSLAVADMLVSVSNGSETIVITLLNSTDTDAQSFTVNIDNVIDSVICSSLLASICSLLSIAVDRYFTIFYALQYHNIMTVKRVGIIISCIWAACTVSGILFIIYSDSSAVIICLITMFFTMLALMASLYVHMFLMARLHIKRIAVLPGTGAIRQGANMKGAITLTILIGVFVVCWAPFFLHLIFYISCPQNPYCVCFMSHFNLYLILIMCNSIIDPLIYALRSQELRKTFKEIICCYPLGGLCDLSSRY

T1 sequence (P98170 whole entry): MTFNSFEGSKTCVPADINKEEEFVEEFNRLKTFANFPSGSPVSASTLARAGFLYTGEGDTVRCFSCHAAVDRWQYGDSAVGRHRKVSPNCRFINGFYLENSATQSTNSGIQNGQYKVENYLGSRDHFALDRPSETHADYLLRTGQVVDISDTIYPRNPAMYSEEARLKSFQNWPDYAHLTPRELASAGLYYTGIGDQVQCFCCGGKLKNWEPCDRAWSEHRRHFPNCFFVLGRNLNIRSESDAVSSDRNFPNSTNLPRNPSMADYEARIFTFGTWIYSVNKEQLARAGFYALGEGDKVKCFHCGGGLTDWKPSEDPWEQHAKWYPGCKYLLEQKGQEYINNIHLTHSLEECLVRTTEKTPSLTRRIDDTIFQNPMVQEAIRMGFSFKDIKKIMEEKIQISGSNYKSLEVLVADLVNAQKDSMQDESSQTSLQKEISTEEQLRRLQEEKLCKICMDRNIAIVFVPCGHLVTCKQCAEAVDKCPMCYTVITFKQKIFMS
Nucleotide-binding oligomerization domain-containing protein 2, sequence (Q9HC29 whole entry, the tested form may be a part): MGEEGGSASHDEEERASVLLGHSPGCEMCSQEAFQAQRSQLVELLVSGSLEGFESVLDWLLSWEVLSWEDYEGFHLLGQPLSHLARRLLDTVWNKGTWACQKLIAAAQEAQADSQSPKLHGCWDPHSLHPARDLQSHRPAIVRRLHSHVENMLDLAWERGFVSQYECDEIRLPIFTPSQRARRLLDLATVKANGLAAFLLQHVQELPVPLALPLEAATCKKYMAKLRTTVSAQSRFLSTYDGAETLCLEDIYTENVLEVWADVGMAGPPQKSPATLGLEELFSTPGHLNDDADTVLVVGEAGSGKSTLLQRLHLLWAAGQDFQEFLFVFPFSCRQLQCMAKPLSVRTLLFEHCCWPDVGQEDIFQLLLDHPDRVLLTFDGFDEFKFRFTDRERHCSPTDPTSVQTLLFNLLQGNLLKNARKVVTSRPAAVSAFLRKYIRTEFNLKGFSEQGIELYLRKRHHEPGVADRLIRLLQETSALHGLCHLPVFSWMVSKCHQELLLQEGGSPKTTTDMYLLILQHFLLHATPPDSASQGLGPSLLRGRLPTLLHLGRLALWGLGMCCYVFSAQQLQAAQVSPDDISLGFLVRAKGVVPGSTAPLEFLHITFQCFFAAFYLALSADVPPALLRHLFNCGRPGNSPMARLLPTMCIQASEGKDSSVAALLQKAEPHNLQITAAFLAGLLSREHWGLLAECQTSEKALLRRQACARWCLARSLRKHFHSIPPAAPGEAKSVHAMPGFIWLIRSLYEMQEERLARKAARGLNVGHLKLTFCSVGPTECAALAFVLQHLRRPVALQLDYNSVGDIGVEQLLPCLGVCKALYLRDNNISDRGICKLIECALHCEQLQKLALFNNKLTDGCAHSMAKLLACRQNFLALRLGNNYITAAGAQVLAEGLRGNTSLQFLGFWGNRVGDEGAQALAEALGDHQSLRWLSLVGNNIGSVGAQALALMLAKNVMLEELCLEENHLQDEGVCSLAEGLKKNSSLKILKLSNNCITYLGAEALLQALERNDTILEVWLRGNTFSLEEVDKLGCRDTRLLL
Female germline-specific tumor suppressor gld-1, sequence (Q17339 whole entry): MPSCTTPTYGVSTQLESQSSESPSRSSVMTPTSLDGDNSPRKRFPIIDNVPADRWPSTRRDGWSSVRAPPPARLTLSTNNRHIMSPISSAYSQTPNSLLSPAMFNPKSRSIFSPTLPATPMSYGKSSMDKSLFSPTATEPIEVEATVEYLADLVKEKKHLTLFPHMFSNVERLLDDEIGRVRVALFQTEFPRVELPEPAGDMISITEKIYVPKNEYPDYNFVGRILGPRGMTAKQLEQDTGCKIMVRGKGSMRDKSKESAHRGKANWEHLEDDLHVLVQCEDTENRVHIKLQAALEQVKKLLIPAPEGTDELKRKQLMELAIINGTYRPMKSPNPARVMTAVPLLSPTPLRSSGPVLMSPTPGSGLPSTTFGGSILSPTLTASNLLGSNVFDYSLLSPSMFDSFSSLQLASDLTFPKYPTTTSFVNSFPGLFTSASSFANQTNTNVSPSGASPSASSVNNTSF
Acyl-homoserine lactone acylase PvdQ, sequence (Q9I194 24-193 limits assumed): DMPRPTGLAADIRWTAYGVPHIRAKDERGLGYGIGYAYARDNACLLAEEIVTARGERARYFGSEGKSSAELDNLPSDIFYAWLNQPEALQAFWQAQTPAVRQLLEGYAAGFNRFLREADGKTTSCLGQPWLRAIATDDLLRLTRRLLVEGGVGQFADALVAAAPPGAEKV
Acyl-homoserine lactone acylase PvdQ, sequence (Q9I194 217-762 limits assumed): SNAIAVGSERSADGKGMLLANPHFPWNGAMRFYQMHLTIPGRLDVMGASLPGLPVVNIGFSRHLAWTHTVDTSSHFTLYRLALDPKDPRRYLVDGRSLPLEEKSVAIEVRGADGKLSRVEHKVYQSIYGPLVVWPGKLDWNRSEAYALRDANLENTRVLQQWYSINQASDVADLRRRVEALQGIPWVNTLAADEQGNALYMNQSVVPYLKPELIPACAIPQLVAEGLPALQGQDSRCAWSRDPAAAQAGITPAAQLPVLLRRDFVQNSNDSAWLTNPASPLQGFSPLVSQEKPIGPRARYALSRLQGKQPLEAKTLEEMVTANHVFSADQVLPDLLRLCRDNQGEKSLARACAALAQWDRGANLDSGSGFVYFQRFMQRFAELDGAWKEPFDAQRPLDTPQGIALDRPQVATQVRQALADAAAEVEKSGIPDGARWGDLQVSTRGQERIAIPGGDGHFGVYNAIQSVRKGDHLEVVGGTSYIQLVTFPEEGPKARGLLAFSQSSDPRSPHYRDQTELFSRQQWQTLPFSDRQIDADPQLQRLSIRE
Protein Rev, sequence (P04618 whole entry, the tested form may be a part): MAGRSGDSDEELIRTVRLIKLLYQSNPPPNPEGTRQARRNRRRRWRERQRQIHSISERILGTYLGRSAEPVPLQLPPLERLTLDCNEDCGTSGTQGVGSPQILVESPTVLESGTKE
G-protein coupled receptor 55, sequence (Q9Y2T6 whole entry): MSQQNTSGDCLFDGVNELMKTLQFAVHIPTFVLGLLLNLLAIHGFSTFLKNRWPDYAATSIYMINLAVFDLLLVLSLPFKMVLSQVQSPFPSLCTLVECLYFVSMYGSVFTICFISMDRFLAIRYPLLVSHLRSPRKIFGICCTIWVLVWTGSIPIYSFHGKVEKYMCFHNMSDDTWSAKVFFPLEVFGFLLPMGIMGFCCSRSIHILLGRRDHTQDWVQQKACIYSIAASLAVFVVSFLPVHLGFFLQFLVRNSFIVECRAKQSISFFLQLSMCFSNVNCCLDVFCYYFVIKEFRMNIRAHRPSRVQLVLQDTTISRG
Paired box protein Pax-8, sequence (Q06710 whole entry): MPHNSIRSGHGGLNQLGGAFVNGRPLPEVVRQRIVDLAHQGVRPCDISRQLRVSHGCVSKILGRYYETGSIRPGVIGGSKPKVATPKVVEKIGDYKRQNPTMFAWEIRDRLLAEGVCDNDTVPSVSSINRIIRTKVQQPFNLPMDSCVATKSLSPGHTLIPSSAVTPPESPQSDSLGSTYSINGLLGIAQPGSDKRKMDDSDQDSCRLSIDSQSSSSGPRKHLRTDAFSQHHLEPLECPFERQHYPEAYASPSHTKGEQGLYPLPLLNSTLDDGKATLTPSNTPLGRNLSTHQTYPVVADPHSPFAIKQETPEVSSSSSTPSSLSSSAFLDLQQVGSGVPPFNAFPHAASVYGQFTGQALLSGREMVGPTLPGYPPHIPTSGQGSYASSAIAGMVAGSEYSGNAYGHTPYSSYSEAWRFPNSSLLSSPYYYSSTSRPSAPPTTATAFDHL
Intestinal-type alkaline phosphatase, sequence (P09923 whole entry): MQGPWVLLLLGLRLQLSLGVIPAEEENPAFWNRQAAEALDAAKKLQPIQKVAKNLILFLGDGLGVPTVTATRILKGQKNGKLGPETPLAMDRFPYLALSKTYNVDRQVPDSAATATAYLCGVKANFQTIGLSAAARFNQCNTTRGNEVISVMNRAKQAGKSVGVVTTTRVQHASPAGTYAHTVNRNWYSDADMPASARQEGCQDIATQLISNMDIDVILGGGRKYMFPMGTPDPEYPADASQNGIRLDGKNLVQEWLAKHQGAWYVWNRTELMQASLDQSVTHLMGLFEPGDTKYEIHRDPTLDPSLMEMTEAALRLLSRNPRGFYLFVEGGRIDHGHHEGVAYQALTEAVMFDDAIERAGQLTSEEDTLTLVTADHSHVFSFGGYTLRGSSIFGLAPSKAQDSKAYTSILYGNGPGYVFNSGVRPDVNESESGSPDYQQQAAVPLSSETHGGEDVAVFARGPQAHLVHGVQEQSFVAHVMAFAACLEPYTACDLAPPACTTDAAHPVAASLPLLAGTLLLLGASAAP
Glyceraldehyde-3-phosphate dehydrogenase, sequence (P04406 whole entry): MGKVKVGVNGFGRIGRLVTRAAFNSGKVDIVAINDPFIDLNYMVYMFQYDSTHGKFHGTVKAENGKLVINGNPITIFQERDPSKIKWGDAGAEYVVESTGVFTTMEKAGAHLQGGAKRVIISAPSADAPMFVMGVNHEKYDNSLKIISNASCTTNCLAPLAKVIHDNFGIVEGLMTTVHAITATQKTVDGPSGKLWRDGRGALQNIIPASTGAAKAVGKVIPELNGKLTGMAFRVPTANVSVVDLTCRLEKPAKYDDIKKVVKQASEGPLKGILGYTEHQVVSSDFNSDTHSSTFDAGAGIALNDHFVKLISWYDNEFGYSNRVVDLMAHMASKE

CC(C)(Nc1ccccc1)C(=O)c1ccccc1
IC50 [1]: > 100 µM (inactive)
IC50 [2]: > 100 µM (not active)

O=C(c1cccc([N+](=O)[O-])c1)N1CC2C3C=CC(C3)C2C1 (configuration not stated)
AC50 [3]: 7.93 µM (active)

C=C(C(=O)c1ccccc1)C(C(=C)C(=O)c1ccccc1)c1ccc(OC)cc1
EC50 (HEK293 [4]): > 20 µM (inactive)
EC50 [5]: 2.88 µM (active)
AC50 (INS1): 6.58 µM (active)
EC50 [6]: > 20 µM (inactive)
CC50 (Vero [7]): 11.2 µM (active)
IC50 (HEK293 [8]): 5.78 µM (active)
IC50 (HEK293 [9]): > 20 µM (inactive)
AC50 (Paired box protein Pax-8): 2.66 µM (active)
EC50 [10]: 10.4 µM (active)
IC50 (HEK293 [11]): > 20 µM (inactive)
IC50 (Vero [12]): > 25 µM (active)
IC50 (HEK293 [13]): 5.4 µM (inactive)

O=C(NNC(=S)NC(=O)c1cn(-c2ccccc2)nc1-c1ccccc1)c1ccncc1
CC50 [14]: > 20 µM (active)
CC50 [15]: 13.6 µM (active)
EC50 [16]: 0.239 µM (active)
CC50 [17]: 10 µM (active)
CC50 (Vero [7]): 24.3 µM (active)
IC50 (cells): 2.75 µM (active)
EC50 (Streptococcus): 0.94 µM (active)
IC50 (Vero [12]): 24.4 µM (active)

Cc1c(O)ccc(-c2n[nH]c(C(=O)O)c2-c2nc3ccccc3s2)c1O
EC50 [18]: 14 µM (inconclusive)
IC50 (Protein Rev): > 75.4 µM (not active)
EC50 [19]: 15.3 µM (active)
IC50 [20]: 5.41 µM (active)

CC(=O)c1c(C(C)=O)c(C)n(Cc2ccc3c(c2)OCO3)c1C
EC50 [21]: > 32 µM (inactive)

CCCCn1c(=O)[nH]c2nc3cc(NC(C)=O)ccc3nc2c1=O
IC50 (Protein Rev): 6.5 µM (active)
IC50 [20]: 0.84 µM (active)

COc1cc(NC(=O)C2CCCN2S(=O)(=O)c2cccc3cccnc23)cc(OC)c1OC (configuration not stated)
IC50 [1]: > 100 µM (inactive)
IC50 [2]: > 100 µM (not active)

CCCCOc1cccc(C2C(C(=O)c3ccc4c(c3)OCCO4)=C(O)C(=O)N2CCN2CCOCC2)c1 (configuration not stated)
IC50 [22]: > 100 µM (inactive)

O=C1/C(=C\c2cccc([N+](=O)[O-])c2O)SC(=S)N1Cc1ccccc1
EC50 (HEK293 [4]): 5.91 µM (active)
CC50 (Vero [23]): 22.8 µM (active)
IC50 (Nonstructural protein 1): 16.4 µM (active)
EC50 [6]: 9.56 µM (active)
IC50 (HEK293 [9]): > 20 µM (inactive)
IC50 (HEK293 [11]): 18.9 µM (active)
IC50 (HEK293 [13]): 4.7 µM (inactive)

CCOc1ccc(-c2cc(C(=O)O)[nH]n2)cc1
IC50 [24]: > 100 µM (not active)
IC50 [25]: 19.8 µM (active)

COC(=O)c1cc(-c2ccc(OC)cc2)on1
AC50 [3]: 0.67 µM (active)
IC50 (cells): 3.5 µM (active)

O=C(Nc1ccc(Cl)c(Cl)c1)N(Cc1cccnc1)Cc1ccco1
EC50 [5]: 0.552 µM (active)
EC50 [21]: > 32 µM (inactive)
EC50 [10]: > 60 µM (not active)

CN1CCN(C2Cc3ccccc3Sc3cc(C(F)(F)F)ccc32)CC1 (configuration not stated)
CC50 [14]: > 20 µM (active)
CC50 [26]: 17.9 µM (active)
CC50 [15]: 17.4 µM (active)
CC50 [17]: > 20 µM (active)
AC50 [27]: 6.72 µM (active)
IC50 (cells): 14.9 µM (active)

CCC(c1ccccc1)C(CC)c1cc(O)c(O)c(O)c1 (configuration not stated)
IC50 (Genome polyprotein): 39.4 µM (active)
IC50 (Hexokinase HKDC1): 18.3 µM (active)

CCC(C)NC(=O)c1c(N)n(/N=C/c2cccnc2)c2nc3ccccc3nc12 (configuration not stated)
EC50 [28]: > 40 µM (inactive)
EC50 (Melanocortin receptor 4): > 89.2 µM (inactive)
